Each structure is given as a SMILES string. The source made the active and inactive calls. No cut-off for these calls is given here.

A short description of test [1]: Intrinsic activity at human melatonin MT2 receptor expressed in CHO cells assessed as [35S]GTPgammaS binding after 1 hr. It counts as functional, cell-based. In general terms: GTPγS resists hydrolysis and so accumulates on activated G proteins.
Test [2] can be described thus: Intrinsic activity at human melatonin MT1 receptor expressed in CHO cells assessed as [35S]GTPgammaS binding after 1 hr relative to melatonin. It counts as functional.
Test [3] is described as follows: Intrinsic activity at human melatonin MT2 receptor expressed in CHO cells assessed as [35S]GTPgammaS binding after 1 hr relative to melatonin. It counts as functional.
Test [4] in a line: Displacement of 2-[I]iodomelatonin from human melatonin MT1 receptor after 120 mins.
A short description of test [5]: Intrinsic activity at human melatonin MT1 receptor expressed in CHO cells assessed as [35S]GTPgammaS binding after 1 hr. It counts as functional, cell-based.
Test [6] is described as follows: Displacement of 2-[I]iodomelatonin from human melatonin MT2 receptor after 120 mins.
Test [7] has as its system Mus musculus. As to the kind of experiment: Increase of neophobia in C3H/he mouse assessed as time spent in unfamiliar compartment at 1 to 25 mg/kg, po. The format is functional, organism-based.
The test system of a further test is Rattus norvegicus. Briefly: Decrease of anticipation of social defeat in rat assessed as reduction of duration of immobility and vocalization at 40 mg/kg, ip. Also on record: dose 40 mg/kg. It counts as functional, organism-based.
The subject of test [8] is Mus musculus. As to the kind of experiment: Anxiolytic activity in C3H/he mouse assessed as increase in number of transitions at 10 to 40 mg/kg, po by light/dark box test. The format is functional, organism-based.
Test [9] relates to Mus musculus. Briefly: Anxiolytic activity in C3H/he mouse assessed as increase in time spent in light box at 10 to 40 mg/kg, po by light/dark box test. It counts as functional, organism-based.
Test [10] deals with Mus musculus. Briefly: Increase of resynchronization of activity rhythm in C3H/he mouse at 20 mg/kg, ip. It counts as functional. Particulars: route intraperitoneal.
For test [11], the system named is Mus musculus. Briefly: Anxiolytic activity in C3H/he mouse assessed as increase in time spent in light box at 20 to 40 mg/kg, po by light/dark box test. The format is functional, organism-based.
For test [12], the system named is Mus musculus. Briefly: Anxiolytic activity in C3H/he mouse assessed as increase in number of transitions at 20 to 40 mg/kg, po by light/dark box test. It counts as functional, organism-based.
For test [13], the system named is Mus musculus. Briefly: Increase of neophobia in C3H/he mouse assessed as time spent in unfamiliar compartment at 1 to 10 mg/kg, po. It counts as functional, organism-based.

As usually defined, the EC50 is the concentration needed to bring the measured effect to its halfway point. As usually defined, the Emax is the maximal effect, on the per cent scale that the assay sets. The Ki is a measure of affinity in units of concentration, obtained from inhibition or displacement. Read a high Ki as weaker binding. Turning to `C=CC(=O)NCCc1coc2ccc3c(c12)CCCO3`, the EC50 in test [1] amounted to 51 nM; in test [5] it was 13 nM. The Emax was found to be 80% in test [2] and 74% in test [3]. The Ki was 0.11 nM in test [4] and 0.38 nM in [6].
As to `O=C(CI)NCCc1coc2ccc3c(c12)CCCO3`, the concentration for a half-maximal effect (EC50) was 0.1 nM in test [1] and 0.2 nM in test [5]. Further, the Emax in [2] worked out at 121%; in [3], 78%. In addition, the Ki in [4] was 0.07 nM; in [6] it was 0.08 nM.
Consider `CCCNC(=O)NCCc1coc2ccc3c(c12)CCCO3`, for which the Ki in test [4] came out at 1.3 nM; in [6], 0.74 nM.
On to `CC(=O)NCCc1coc2ccc3c(c12)CCCO3`, for which the outcome in the test with Mus musculus [7], with Rattus norvegicus, in the test on Mus musculus [8] and with Mus musculus [9] was Active. In addition, the values for the EC50 in test [1] and in [5] were 0.19 nM and 0.8 nM, respectively. The Emax in [2] was 98%; in test [3] it was 68%. Moreover, the Ki amounted to 0.31 nM in test [4] and 0.59 nM in test [6]. Besides, the Activity with Mus musculus [10] was 30%.
With `CCCCNC(=O)NCCc1coc2ccc3c(c12)CCCO3`, the Ki in [4] came to 50 nM; in test [6], 23 nM.
As to `CC(=O)N(C)CCc1coc2ccc3c(c12)CCCO3`, the EC50 in test [1] and in test [5] was greater than 10000 nM each time. In addition, the Ki came to 14 nM in test [4] and 13 nM in test [6].
As to `CC(=O)NCCc1c(-c2cccc(O)c2)oc2ccc3c(c12)CCCO3`, the values for the concentration for a half-maximal effect (EC50) in test [1] and in test [5] were 0.21 nM and 4.6 nM, respectively. For the same compound, the values for the maximal response (Emax) in [2] and in test [3] were 46% and 93%, respectively. The Ki was 0.87 nM in test [4] and 0.21 nM in test [6].
Consider `CCCNC(=S)NCCc1coc2ccc3c(c12)CCCO3`, for which the Ki was determined as 5.4 nM in [4] and 4.4 nM in test [6].
Regarding `COc1cccc(C(=O)c2oc3ccc4c(c3c2CCNC(C)=O)CCCO4)c1`, the results for the Ki in [4] and in test [6] were 130 nM and 0.83 nM, respectively.
As to `C=CCC(=O)NCCc1coc2ccc3c(c12)CCCO3`, the EC50 in test [1] came out at 1.5 nM; in test [5] it was 2.5 nM. Further, the results for the Emax in test [2] and in [3] were 68% and 57%, respectively. The Ki in test [4] was 0.07 nM; in [6], 0.08 nM.
Regarding `CCCCNC(=S)NCCc1coc2ccc3c(c12)CCCO3`, the Ki in test [4] was 23 nM; in [6], 46 nM.
The like results for `COc1ccc(C(=O)c2oc3ccc4c(c3c2CCNC(C)=O)CCCO4)cc1` were, in that order, 105 nM and 2.7 nM.
For `CC(=O)NCCc1coc2cc(C(=O)c3cccc(C(F)(F)F)c3)c3c(c12)CCCO3` the same measures were 34 nM and 29 nM.
For `CCCC(=O)c1oc2ccc3c(c2c1CCNC(C)=O)CCCO3` the same measures were 0.97 nM and 0.1 nM.
In the case of `COc1cccc(C(=O)c2cc3occ(CCNC(C)=O)c3c3c2OCCC3)c1`, the EC50 in [1] is 149 nM; in [5], 455 nM. For the same compound, the Emax came to 56% in [2] and 58% in [3]. Besides, the Ki was 35 nM in test [4] and 80 nM in test [6].
Regarding `COc1ccc2[nH]cc(CCNC(C)=O)c2c1` [MELATONIN], the EC50 in [1] amounted to 0.4 nM; in test [5] it was 1.7 nM. Besides, the result in the test on Mus musculus [11], in the test with Mus musculus [12] and in the test on Mus musculus [13] was Active. In addition, affinity in test [4] was put at a Ki of 0.23 nM.
In test [4], `COc1ccccc1C(=O)c1cc2occ(CCNC(C)=O)c2c2c1OCCC2` had a Ki of 823 nM.
In the case of `COc1cccc(-c2oc3ccc4c(c3c2CCNC(C)=O)CCCO4)c1`, the EC50 in test [1] is 0.2 nM; in [5] it was 1.8 nM. Also, the results for the Emax in [2] and in test [3] were 30% and 68%, respectively. In addition, the Ki in test [4] was determined as 0.33 nM; in test [6], 0.3 nM.
Consider `COc1ccc2occ(CCNC(C)=O)c2c1`, for which the half-maximal effective concentration (EC50) is 0.7 nM in test [1] and 5.5 nM in test [5]. In addition, the values for the Emax in test [2] and in [3] were 118% and 101%, respectively. The same compound registered a Ki in [4] of 0.16 nM.
As for `C/C=C/C(=O)NCCc1coc2ccc3c(c12)CCCO3`, the EC50 in [1] came to 14 nM; in test [5], 61 nM. Moreover, the Emax was 92% in test [2] and 65% in test [3]. Besides, the Ki in [4] amounted to 1.3 nM; in test [6], 2.6 nM.
Turning to `CC(=O)NCCc1coc2cc(C(=O)c3ccccc3)c3c(c12)CCCO3`, the inhibitory constant (Ki) in test [4] is 44 nM; in test [6] it was 40 nM.
As to `CC(=O)NCCc1c(C(=O)c2cccc(C(F)(F)F)c2)oc2ccc3c(c12)CCCO3`, the EC50 in test [1] was 16 nM; in test [5] it was greater than 10000 nM. The Emax in test [3] was found to be 44%. Also, the values for the Ki in [4] and in test [6] were 326 nM and 2.6 nM, respectively.
As for `COc1ccccc1C(=O)c1oc2ccc3c(c2c1CCNC(C)=O)CCCO3`, the Ki in test [4] was determined as 53 nM; in [6] it was 13 nM.
Consider `CC(=O)NCCc1c(-c2ccccc2)oc2ccc3c(c12)CCCO3`, for which the EC50 amounted to 0.07 nM in [1] and 0.12 nM in test [5]. The Emax in test [2] stood at 107%; in test [3], 104%. Moreover, the results for the Ki in test [4] and in [6] were 0.04 nM and 0.14 nM, respectively.
Take `COc1ccc(C(=O)c2cc3occ(CCNC(C)=O)c3c3c2OCCC3)cc1`: the figures for the Ki in test [4] and in [6] were 5370 nM and 3860 nM, respectively.
For the compound `C=CCc1oc2ccc3c(c2c1CCNC(C)=O)CCCO3`, the EC50 was found to be 0.08 nM in test [1] and 0.15 nM in test [5]. For the same compound, the figures for the Emax in test [2] and in test [3] were 104% and 109%, respectively. For the same compound, the Ki in test [4] was determined as 0.03 nM; in test [6], 0.12 nM.
In the case of `S=C(NCCc1coc2ccc3c(c12)CCCO3)NC1CC1`, the EC50 was determined as 38 nM in [1] and 143 nM in test [5]. Also, the figures for the Emax in [2] and in test [3] were 42% and 46%, respectively. Also, the Ki is 5.6 nM in [4] and 7.4 nM in test [6].
With `CC(=O)NCCc1coc2cc(Cc3cccc(C(F)(F)F)c3)c3c(c12)CCCO3`, the figures for the Ki in test [4] and in test [6] were 9 nM and 13 nM, respectively.
`C=Cc1oc2ccc3c(c2c1CCNC(C)=O)CCCO3`: the results for the EC50 in test [1] and in test [5] were 0.21 nM and 0.08 nM, respectively. Further, the maximum response (Emax) was found to be 113% in [2] and 120% in test [3]. The Ki in test [4] was 0.05 nM; in test [6], 0.2 nM.
With `CC(=O)NCCc1c(-c2cccc(CO)c2)oc2ccc3c(c12)CCCO3`, the EC50 in [1] came to 0.3 nM; in [5], 8.5 nM. Besides, the Emax in [2] is 32%; in [3], 67%. Besides, the values for the Ki in test [4] and in [6] were 2.2 nM and 0.67 nM, respectively.
